From paper PMC9694544, “Conteltinib (CT-707) in patients with advanced ALK-positive non-small cell lung cancer: a multicenter, open-label, first-in-human phase 1 study” (BMC Medicine, 2022)

Tested on: patients with ALK-positive NSCLC
Assay: Phase 1 safety assessment (TRAEs by CTCAE 4.03, DLT, MTD, RP2D)
Type: in vivo, human
Method: In the dose-escalation phase, the dose was escalated sequentially from a low to a high level with a 3 + 3 dose-escalation scheme based on the modified Fibonacci method. The starting dose for conteltinib was 50 mg orally quaque die (QD). Dose escalation proceeded to the next six cohorts of 100 mg, 200 mg, 300 mg, 450 mg, 600 mg, and 800 mg QD. For each dose, there was a PK lead-in phase where a single dose was given 7 days before cycle 1 day 1. Then, each dose was taken continuously in a 28-day cycle. The first cycle was for dose-limiting toxicity (DLT) investigation. When one of three patients experienced a DLT in a dose cohort, three additional patients were enrolled in the same dose cohort to assess the dose level in a total of six patients. All patients received conteltinib until disease progression, unacceptable toxicity, or withdrawal of consent. Patients received follow-up safety assessments for 30 days (±7 days) after the last conteltinib dose.
In the dose-expansion phase, each dose was taken continuously in a 28-day cycle. At the end of each cycle, a safety evaluation was conducted. If patients met the criteria to enter the next cycle, treatment with conteltinib was continued for subsequent cycles. All patients received conteltinib until disease progression, unacceptable toxicity, or withdrawal of consent. Patients received follow-up safety assessments for 30 days (±7 days) after the last dose of conteltinib.
The safety of conteltinib was assessed in safety set (SS) which was based on the National Cancer Institute Common Terminology Criteria for Adverse Events (CTCAE) version 4.03, laboratory tests, vital signs, ECG, and clinical observations. […] Adverse events (AEs) were judged to be treatment-related or not by investigators.
DLTs were AEs occurring in the first cycle of treatment (28 days) that were attributed to conteltinib, and the criteria were grade 4 neutropenia lasting ≥ 7 days, febrile neutropenia, grade 3 thrombocytopenia, grade 3 non-hematologic toxicity, and any conteltinib-related toxicity resulting in treatment delay > 2 weeks or discontinuation of conteltinib treatment at the assigned dose level. Besides, grade 3 nausea, vomiting, or diarrhea for ≥ 3 days or grade 4 nausea, vomiting, or diarrhea of any duration was considered as a DLT. The MTD was defined as the dose of conteltinib that would be closest to but not higher than a 33% probability of a DLT.

## COc1cc(N2CCC(N3CCN(C)CC3)CC2)ccc1Nc1nc2c(c(Nc3ccccc3S(=O)(=O)NC(C)C)n1)CCN2 [Conteltinib]
50 mg QD (n=2), Grade 1–2
  Patients with any TRAE: 1 (50.0) n (%)
  TRAE ALT elevated: 0 (0.0) n (%)
  TRAE AST elevated: 0 (0.0) n (%)
  TRAE Abdominal pain: 0 (0.0) n (%)
  TRAE Abdominal pain upper: 0 (0.0) n (%)
  TRAE Appetite decreased: 0 (0.0) n (%)
  TRAE Conjugated bilirubin elevated: 0 (0.0) n (%)
  TRAE Diarrhea: 1 (50.0) n (%)
  TRAE Hypercholesterolemia: 0 (0.0) n (%)
  TRAE Hyperglycemia: 0 (0.0) n (%)
  TRAE Hypertriglyceridemia: 0 (0.0) n (%)
  TRAE Hyperuricemia: 0 (0.0) n (%)
  TRAE Hypoalbuminemia: 0 (0.0) n (%)
  TRAE Nausea: 0 (0.0) n (%)
  TRAE Proteinuria: 0 (0.0) n (%)
  TRAE Serum creatinine elevated: 0 (0.0) n (%)
  TRAE Vomiting: 0 (0.0) n (%)
  TRAE Weight loss: 0 (0.0) n (%)
  TRAE γ-GGT elevated: 0 (0.0) n (%)
50 mg QD (n=2), Grade ≥ 3
  Patients with any TRAE: 0 (0.0) n (%)
  TRAE ALT elevated: 0 (0.0) n (%)
  TRAE AST elevated: 0 (0.0) n (%)
  TRAE Abdominal pain: 0 (0.0) n (%)
  TRAE Abdominal pain upper: 0 (0.0) n (%)
  TRAE Appetite decreased: 0 (0.0) n (%)
  TRAE Conjugated bilirubin elevated: 0 (0.0) n (%)
  TRAE Diarrhea: 0 (0.0) n (%)
  TRAE Hypercholesterolemia: 0 (0.0) n (%)
  TRAE Hyperglycemia: 0 (0.0) n (%)
  TRAE Hypertriglyceridemia: 0 (0.0) n (%)
  TRAE Hyperuricemia: 0 (0.0) n (%)
  TRAE Hypoalbuminemia: 0 (0.0) n (%)
  TRAE Nausea: 0 (0.0) n (%)
  TRAE Proteinuria: 0 (0.0) n (%)
  TRAE Serum creatinine elevated: 0 (0.0) n (%)
  TRAE Vomiting: 0 (0.0) n (%)
  TRAE Weight loss: 0 (0.0) n (%)
  TRAE γ-GGT elevated: 0 (0.0) n (%)
100 mg QD (n=8), Grade 1–2
  Patients with any TRAE: 6 (75.0) n (%)
  TRAE ALT elevated: 1 (12.5) n (%)
  TRAE AST elevated: 2 (25.0) n (%)
  TRAE Abdominal pain: 0 (0.0) n (%)
  TRAE Abdominal pain upper: 1 (12.5) n (%)
  TRAE Appetite decreased: 0 (0.0) n (%)
  TRAE Conjugated bilirubin elevated: 1 (12.5) n (%)
  TRAE Diarrhea: 0 (0.0) n (%)
  TRAE Hypercholesterolemia: 1 (12.5) n (%)
  TRAE Hyperglycemia: 1 (12.5) n (%)
  TRAE Hypertriglyceridemia: 1 (12.5) n (%)
  TRAE Hyperuricemia: 1 (12.5) n (%)
  TRAE Hypoalbuminemia: 0 (0.0) n (%)
  TRAE Nausea: 3 (37.5) n (%)
  TRAE Proteinuria: 0 (0.0) n (%)
  TRAE Serum creatinine elevated: 2 (25.0) n (%)
  TRAE Vomiting: 1 (12.5) n (%)
  TRAE Weight loss: 0 (0.0) n (%)
  TRAE γ-GGT elevated: 0 (0.0) n (%)
100 mg QD (n=8), Grade ≥ 3
  Patients with any TRAE: 0 (0.0) n (%)
  TRAE ALT elevated: 0 (0.0) n (%)
  TRAE AST elevated: 0 (0.0) n (%)
  TRAE Abdominal pain: 0 (0.0) n (%)
  TRAE Abdominal pain upper: 0 (0.0) n (%)
  TRAE Appetite decreased: 0 (0.0) n (%)
  TRAE Conjugated bilirubin elevated: 0 (0.0) n (%)
  TRAE Diarrhea: 0 (0.0) n (%)
  TRAE Hypercholesterolemia: 0 (0.0) n (%)
  TRAE Hyperglycemia: 0 (0.0) n (%)
  TRAE Hypertriglyceridemia: 0 (0.0) n (%)
  TRAE Hyperuricemia: 0 (0.0) n (%)
  TRAE Hypoalbuminemia: 0 (0.0) n (%)
  TRAE Nausea: 0 (0.0) n (%)
  TRAE Proteinuria: 0 (0.0) n (%)
  TRAE Serum creatinine elevated: 0 (0.0) n (%)
  TRAE Vomiting: 0 (0.0) n (%)
  TRAE Weight loss: 0 (0.0) n (%)
  TRAE γ-GGT elevated: 0 (0.0) n (%)
200 mg QD (n=3), Grade 1–2
  Patients with any TRAE: 3 (100) n (%)
  TRAE ALT elevated: 0 (0.0) n (%)
  TRAE AST elevated: 1 (33.3) n (%)
  TRAE Abdominal pain: 0 (0.0) n (%)
  TRAE Abdominal pain upper: 0 (0.0) n (%)
  TRAE Appetite decreased: 0 (0.0) n (%)
  TRAE Conjugated bilirubin elevated: 0 (0.0) n (%)
  TRAE Diarrhea: 0 (0.0) n (%)
  TRAE Hypercholesterolemia: 0 (0.0) n (%)
  TRAE Hyperglycemia: 0 (0.0) n (%)
  TRAE Hypertriglyceridemia: 0 (0.0) n (%)
  TRAE Hyperuricemia: 1 (33.3) n (%)
  TRAE Hypoalbuminemia: 0 (0.0) n (%)
  TRAE Nausea: 0 (0.0) n (%)
  TRAE Proteinuria: 0 (0.0) n (%)
  TRAE Serum creatinine elevated: 0 (0.0) n (%)
  TRAE Vomiting: 0 (0.0) n (%)
  TRAE Weight loss: 0 (0.0) n (%)
  TRAE γ-GGT elevated: 0 (0.0) n (%)
200 mg QD (n=3), Grade ≥ 3
  Patients with any TRAE: 0 (0.0) n (%)
  TRAE ALT elevated: 0 (0.0) n (%)
  TRAE AST elevated: 0 (0.0) n (%)
  TRAE Abdominal pain: 0 (0.0) n (%)
  TRAE Abdominal pain upper: 0 (0.0) n (%)
  TRAE Appetite decreased: 0 (0.0) n (%)
  TRAE Conjugated bilirubin elevated: 0 (0.0) n (%)
  TRAE Diarrhea: 0 (0.0) n (%)
  TRAE Hypercholesterolemia: 0 (0.0) n (%)
  TRAE Hyperglycemia: 0 (0.0) n (%)
  TRAE Hypertriglyceridemia: 0 (0.0) n (%)
  TRAE Hyperuricemia: 0 (0.0) n (%)
  TRAE Hypoalbuminemia: 0 (0.0) n (%)
  TRAE Nausea: 0 (0.0) n (%)
  TRAE Proteinuria: 0 (0.0) n (%)
  TRAE Serum creatinine elevated: 0 (0.0) n (%)
  TRAE Vomiting: 0 (0.0) n (%)
  TRAE Weight loss: 0 (0.0) n (%)
  TRAE γ-GGT elevated: 0 (0.0) n (%)
300 mg BID (n=12), Grade 1–2
  Patients with any TRAE: 10 (83.3) n (%)
  TRAE ALT elevated: 3 (25.0) n (%)
  TRAE AST elevated: 3 (25.0) n (%)
  TRAE Abdominal pain: 2 (16.7) n (%)
  TRAE Abdominal pain upper: 3 (25.0) n (%)
  TRAE Appetite decreased: 2 (16.7) n (%)
  TRAE Conjugated bilirubin elevated: 1 (8.3) n (%)
  TRAE Diarrhea: 8 (66.7) n (%)
  TRAE Hypercholesterolemia: 0 (0.0) n (%)
  TRAE Hyperglycemia: 0 (0.0) n (%)
  TRAE Hypertriglyceridemia: 1 (8.3) n (%)
  TRAE Hyperuricemia: 2 (16.7) n (%)
  TRAE Hypoalbuminemia: 4 (33.3) n (%)
  TRAE Nausea: 4 (33.3) n (%)
  TRAE Proteinuria: 3 (25.0) n (%)
  TRAE Serum creatinine elevated: 5 (41.7) n (%)
  TRAE Vomiting: 2 (16.7) n (%)
  TRAE Weight loss: 2 (16.7) n (%)
  TRAE γ-GGT elevated: 3 (25.0) n (%)
300 mg BID (n=12), Grade ≥ 3
  Patients with any TRAE: 1 (8.3) n (%)
  TRAE ALT elevated: 0 (0.0) n (%)
  TRAE AST elevated: 0 (0.0) n (%)
  TRAE Abdominal pain: 0 (0.0) n (%)
  TRAE Abdominal pain upper: 0 (0.0) n (%)
  TRAE Appetite decreased: 0 (0.0) n (%)
  TRAE Conjugated bilirubin elevated: 1 (8.3) n (%)
  TRAE Diarrhea: 0 (0.0) n (%)
  TRAE Hypercholesterolemia: 0 (0.0) n (%)
  TRAE Hyperglycemia: 0 (0.0) n (%)
  TRAE Hypertriglyceridemia: 0 (0.0) n (%)
  TRAE Hyperuricemia: 0 (0.0) n (%)
  TRAE Hypoalbuminemia: 0 (0.0) n (%)
  TRAE Nausea: 0 (0.0) n (%)
  TRAE Proteinuria: 0 (0.0) n (%)
  TRAE Serum creatinine elevated: 0 (0.0) n (%)
  TRAE Vomiting: 0 (0.0) n (%)
  TRAE Weight loss: 0 (0.0) n (%)
  TRAE γ-GGT elevated: 1 (8.3) n (%)
300 mg QD (n=3), Grade 1–2
  Patients with any TRAE: 3 (100) n (%)
  TRAE AST elevated: 1 (33.3) n (%)
  TRAE Abdominal pain: 0 (0.0) n (%)
  TRAE Abdominal pain upper: 0 (0.0) n (%)
  TRAE Appetite decreased: 0 (0.0) n (%)
  TRAE Conjugated bilirubin elevated: 0 (0.0) n (%)
  TRAE Diarrhea: 3 (100) n (%)
  TRAE Hypercholesterolemia: 1 (33.3) n (%)
  TRAE Hyperglycemia: 1 (33.3) n (%)
  TRAE Hypertriglyceridemia: 1 (33.3) n (%)
  TRAE Hyperuricemia: 0 (0.0) n (%)
  TRAE Hypoalbuminemia: 1 (33.3) n (%)
  TRAE Nausea: 1 (33.3) n (%)
  TRAE Proteinuria: 0 (0.0) n (%)
  TRAE Serum creatinine elevated: 1 (33.3) n (%)
  TRAE Vomiting: 1 (33.3) n (%)
  TRAE Weight loss: 3 (100) n (%)
  TRAE γ-GGT elevated: 0 (0.0) n (%)
300 mg QD (n=3), Grade ≥ 3
  Patients with any TRAE: 0 (0.0) n (%)
  TRAE ALT elevated: 0 (0.0) n (%)
  TRAE AST elevated: 0 (0.0) n (%)
  TRAE Abdominal pain: 0 (0.0) n (%)
  TRAE Abdominal pain upper: 0 (0.0) n (%)
  TRAE Appetite decreased: 0 (0.0) n (%)
  TRAE Conjugated bilirubin elevated: 0 (0.0) n (%)
  TRAE Diarrhea: 0 (0.0) n (%)
  TRAE Hypercholesterolemia: 0 (0.0) n (%)
  TRAE Hyperglycemia: 0 (0.0) n (%)
  TRAE Hypertriglyceridemia: 0 (0.0) n (%)
  TRAE Hyperuricemia: 0 (0.0) n (%)
  TRAE Hypoalbuminemia: 0 (0.0) n (%)
  TRAE Nausea: 0 (0.0) n (%)
  TRAE Proteinuria: 0 (0.0) n (%)
  TRAE Serum creatinine elevated: 0 (0.0) n (%)
  TRAE Vomiting: 0 (0.0) n (%)
  TRAE Weight loss: 0 (0.0) n (%)
  TRAE γ-GGT elevated: 0 (0.0) n (%)
450 mg QD (n=14), Grade 1–2
  Patients with any TRAE: 14 (100) n (%)
  TRAE ALT elevated: 10 (71.4) n (%)
  TRAE AST elevated: 9 (64.3) n (%)
  TRAE Abdominal pain: 5 (35.7) n (%)
  TRAE Abdominal pain upper: 5 (35.7) n (%)
  TRAE Appetite decreased: 2 (14.3) n (%)
  TRAE Conjugated bilirubin elevated: 2 (14.3) n (%)
  TRAE Diarrhea: 13 (92.9) n (%)
